In a melting point compilation (Tetko et al.; mined from patent text by program, amines drawn as free bases though some values may be those of a salt):

melting point	Compound
174 to 175 °C	CS(=O)(=O)Nc1cc2occ(C=Cc3ccccc3)c(=O)c2cc1Oc1ccccc1
54 to 55 °C	CC(C)[C@H]1C(=O)OCN1C(=O)OCc1ccccc1
104 to 105 °C	CC(C)CCn1c(=O)c(=NNc2ccccc2)c(=O)n(-c2ccccc2F)c2ccccc21
99.5 to 100 °C	O=[N+]([O-])c1cccc(-c2ccccc2O)c1
175 to 178 °C	O=C(c1cccs1)c1cnn2c(-c3cccc(-c4ccc(CN5CCOCC5)cc4)c3)ccnc12
102 to 105 °C	CCCCC(=O)Nc1cccc(-n2nc(CCCC)n(Cc3ccc(-c4ccccc4S(=O)(=O)NC(=O)c4ccccc4Cl)cc3)c2=O)c1
271 to 273 °C	CCOc1ccc(-c2nc(-c3cc(CNC)c(O)c(C(=O)O)c3)cs2)cc1OCC
102 to 105 °C	COc1ccc(C(=O)C2CCN(CCCO)CC2)cc1
189 to 191 °C	COc1ccc2c(c1)C(=O)C(=O)C1=C2OC2(CCN(CC(O)COc3ccc(F)cc3)CC2)CS1 (stereo not drawn)
117 to 120 °C	CCOP(=O)(Cc1ccc(C(=O)O)cc1)OCC
74 to 75 °C	CCCCCCCCCCOc1ccc2cc(C#CC(C)O)ccc2c1 (stereo not drawn)
227 to 228 °C	CNC(=NC#N)Nc1ccc(Cl)nc1
236 to 237 °C	CC(=O)NC(=Cc1ccc(OC(C)=O)cc1)C(=O)O
185 to 187 °C	Nc1nc(-c2cc(Cl)ccc2Cl)nc(N2CCN(CCO)CC2)n1
128 to 131 °C	c1ccc2c(N3CCCCC3)nc(N3CCCCC3)nc2c1
103 to 106 °C	Cc1cccc(-c2[nH]c(C(C)C)nc2-c2ccc(F)c(-c3ccc[nH]3)c2)n1
99 to 101 °C	CCCCCCCCCCCCCc1nc(NC(=O)Nc2c(C(C)C)cccc2C(C)C)no1
181 to 184 °C	CS(=O)(=O)Oc1cc(C=CC(=O)c2ccccc2)cc([N+](=O)[O-])c1OS(C)(=O)=O
98 to 100 °C	CCN(C(C)=O)c1cc([N+](=O)[O-])cc([N+](=O)[O-])c1
130 to 136 °C	O=C1c2cc(Cl)ccc2CN2C(=NO)CCC12 (stereo not drawn)
125 to 126 °C	CCOC(=O)c1cn(Cc2ccccc2)nc1OCc1ccc(OCc2nc(-c3ccco3)oc2C)c(CC)c1
120 to 125 °C	COC(=O)C=C(C)c1ccc(CCNCC(O)c2ccccc2)cc1 (stereo not drawn)
14 °C	CCCCCCCC1=CCC(c2cc(F)c(F)c(F)c2)C=C1 (stereo not drawn)
91 to 96 °C	CC(C)(C)OC(=O)n1cc(C(=O)C2CSC(c3cccnc3)N2)c2cccc(OCc3ccccc3)c21 (stereo not drawn)

melting point	Compound
254 to 256 °C	CCCn1c(=O)c2[nH]c(/C=C/c3cc(OC)c(OC)cc3OC)nc2n(CCC)c1=O
216 to 218 °C	CN1CCN(c2cccc(Nc3nc4c(-c5cnn(-c6ccc(F)cc6)c5)cccn4n3)c2)CC1
136 to 137 °C	CCc1cn(C(CC)CC)c(=O)c(N2CCc3cc(Cl)cc(Cl)c32)n1
85 to 86 °C	COc1ccc(C(=O)c2c(Cc3ccccc3)sc(C)c2C)cc1
159 to 161 °C	CC(=O)OCCC1CCn2c(c(C3=C(c4cn(C)c5ccccc45)C(=O)OC3=O)c3ccccc32)C1 (stereo not drawn)
134 to 137 °C	O=C(NCC1CCCCN1)c1cc(O)ccc1OCC(F)(F)F (stereo not drawn)
189 to 190 °C	CCC(C)(COc1nn2ncnc2cc1C)CS(N)(=O)=O (stereo not drawn)
152 to 153 °C	COc1cccc(CC(=O)O)c1OCCCc1cn(-c2ccc(Br)cn2)nc1C(C)C
116 to 117 °C	CC(Cc1ccccc1)(C(=O)NO)S(=O)(=O)c1cccs1 (stereo not drawn)
124 to 126 °C	C=CC(=O)Nc1cccc(OC(=O)NCCCCCCCCCCCCCCCCCC)c1
106 °C	Nc1c(C(F)(F)F)cnn1-c1c(Cl)cc(C(F)(F)F)cc1Cl
151 to 152 °C	O=C(O)CNC(=O)c1cc(Br)nc(Br)c1
302 to 304 °C	O=C1c2ccc(O)cc2C(=O)N1c1ccc(O)cc1
343 to 345 °C	Cn1cc(-c2cc3cccnc3[nH]2)c2ccc(C(=O)Nc3nc[nH]n3)cc21
93 to 94.5 °C	COc1cnc(CO)cc1OC1CCCC1
216 °C	N#Cc1cc(C(=O)c2cccs2)ccc1O
90 to 91 °C	CCOC(=O)c1nn(C)c(OC(F)F)c1CO
132 to 136 °C	c1ccc2sc(SSN3CCOCC3)nc2c1
114 to 115 °C	N#CCCNC(=O)c1ccnc(-c2cccc3oc(Cc4cccc(C(F)(F)F)c4)cc23)c1
244 to 245 °C	Cc1nc2nccc(-c3cccnc3)n2n1
153 to 161 °C	CC(C)(C)OC(=O)NC[C@H]1CN(c2ccc3c(c2)CC(C(C)(C)C)N3C=O)C(=O)O1 (stereo partly drawn)
84 to 87 °C	CCNC(=O)NCc1ccc(/C=C/C(c2cc(Cl)c(Cl)c(Cl)c2)C(F)(F)F)c2ccccc12 (stereo not drawn)
60 °C	COC=C(C(=O)OC)c1ccccc1COc1ccccc1
154 to 156 °C	O=C(O)c1[nH]c(-c2ccoc2)cc1-c1ccc(O)cc1

melting point	Compound
139 to 140 °C	O=c1ccccn1C1=CC(CF)(CF)Oc2ccc(C(F)(F)F)cc21
163 °C	CCCn1c(=O)c2c(nc(/C=C/c3ccccc3)n2C)n(CCC)c1=O
111 to 113 °C	CCOc1cccc2oc(-c3ccccc3)cc(=O)c12
115 to 117 °C	CCOC(=O)c1cc2c(OC[C@@H](O)CN3CCC(c4ccc5ccccc5c4)CC3)cccc2[nH]1
68 to 70 °C	C(=C/c1ccccc1)/COCCC1CCN(Cc2ccccc2)CC1
116 to 118 °C	Nc1sc2c(c1C(=O)c1cccs1)CCC(Cc1ccccc1)C2 (stereo not drawn)
128 °C	CNCC1=C(n2ccccc2=O)c2cc([N+](=O)[O-])ccc2OC1(C)C
137 to 139 °C	Cc1c(OCC#N)cc2c(c1Cl)C(=O)C1(CCCC1)C2=O
104 °C	CCOc1ccc(N)c(S)c1
129 to 131 °C	CCc1c(-c2ccc(O)cc2)c2c(COCCCCCCN3CCCCC3)cc3c(O)ccc1n32
117 to 118 °C	CC(=O)N1CCCC2=C1CCc1cccc(Cl)c12
110 to 112 °C	O=C1C=CC(=C(c2ccccc2)c2ccccc2)O1
95 to 97 °C	CCCc1c(OCCCCC(=O)N(C)C)ccc(C(C)=O)c1O
204 to 205 °C	CC1(C)OC(=S)Nc2ccc(-c3cc(F)cc(Cl)c3)cc21
197 °C	N#CC1(N)CC2(OC(c3ccccc3)C(c3ccccc3)O2)C2C1C2(F)C(N)=O (stereo not drawn)
233 °C	Cc1cc(N)nc(CCc2nc3cc(-c4ccc(S(=O)(=O)N5CCCCC5)cc4)cnc3[nH]2)c1
57.5 to 59.5 °C	COc1ccc(C2CCCC(=O)O2)cc1 (stereo not drawn)
255 to 257 °C	CCC(CC)C1CC1(CN)C(=O)O (stereo not drawn)
99 to 101 °C	CC(C)(C)OC(=O)NC1Cc2ccccc2C1Oc1ccccc1 (stereo not drawn)
85.9 to 86.5 °C	CC(C)(C)OC(=O)NCc1cccc(C#N)n1
94 to 97 °C	Cc1nc(-n2cc(CCCc3ccccc3)nn2)sc1C(=O)NCc1ccccc1
226 to 227 °C	O=C1COc2ccc(C3=Cc4ccccc4SC3c3ccccc3)cc2N1 (stereo not drawn)
183 to 184 °C	COc1ccc(C(=NOCc2ccc(OCc3nc(-c4ccccc4)oc3C)cc2)C(=O)O)cc1
162 to 165 °C	O=c1[nH]cc(C(F)(F)F)cc1Br

melting point	Compound
188 °C	Cc1cccc(NC(=O)NCC(=O)N(CC(=O)N2CCCCC2C)c2ccccc2)c1 (racemic)
139 to 141 °C	CCN(CC)C(=O)c1cc(-c2ccccc2)ccc1-c1ccc(OC)cc1
130 to 132 °C	O=[N+]([O-])c1ccc(Cl)cc1-c1nc2ccccc2o1
143 to 145 °C	Cc1nc(Cl)c(-c2c(F)cccc2F)n1-c1ccc(Cl)cc1
163 to 165 °C	O=C(COc1ccc2ccc(=O)oc2c1)c1ccccc1
89 to 92 °C	COC(=O)c1ccc(CCCNCC(O)c2cccc(Cl)c2)cc1 (stereo not drawn)
106 °C	C=CC(=O)Oc1ccc(-c2cccc(-c3ccc(OC(=O)C=C)cc3)c2)cc1
170 to 171 °C	CCOC(=O)NC(=O)C(C#N)=CNc1cccc(F)c1
165 to 168 °C	Nc1ncnc2c1ccn2C1C=CC(CO)C1 (stereo not drawn)
258 °C	N#CC1=C(c2ccccc2)Nc2n[nH]cc2C1c1cccc2nsnc12 (stereo not drawn)
125 to 126 °C	CNC(=O)CCNC(=O)NOCCCl
73 to 75 °C	CSC1NC(=O)N(C(C)C)C(=O)N1C (stereo not drawn)
198 to 200 °C	Cc1nc2cc(Cl)c(Cl)cc2n1C1CC(CO)C(O)C1O (stereo not drawn)
167 °C	COC(C)CC(=O)NC1CCC(CCN2CCN(c3nccc4c3CCO4)CC2)CC1 (stereo not drawn)
228 to 230 °C	COc1cc(F)ccc1C(F)C1CCCCn2c1nc(-c1ccncn1)cc2=O (racemic)
152 to 160 °C	COC(=O)COc1cccc2c1S[C@@H](c1ccc(OC)cc1)[C@@H](O)C(=O)N2CCN(C)C (racemic)
125 to 128 °C	CC(C)C1(C)N=C2c3ncccc3C(=O)N2C1=O (stereo not drawn)
210 °C	Cc1c(C#N)c(N)nc(Cl)c1C#N
194 °C	O=C(NC1CCCCCCC1)NC1CCCCC1
245 to 247 °C	Oc1ccc(Nc2nncc3ccccc23)cc1
66 °C	COC(=O)Cc1sc(N=C2SC[C@@H]3Cc4ccccc4CN23)nc1C
45 to 48 °C	Cc1sc(CO)c(C)c1C

Compound	melting point
CN(C)C1CC=C(c2c[nH]c3ccc([N+](=O)[O-])cc23)CC1 (stereo not drawn)	234 to 236 °C
CCCCN1CCC2(CC1)OC(=O)c1ccccc12	60 to 62 °C
N#CC1(c2ccccc2)CCN(C(=O)N2CCCc3ccccc32)CC1	53 to 59 °C
O=C(Cc1ccc(Cl)c(Cl)c1)N1CCN(Cc2ccccc2)CC1CO (stereo not drawn)	148 to 150 °C
Cc1nn(-c2cc(F)c(C#N)cc2F)c(C)c1Cl	153 °C
NCCc1c[nH]c(=O)[nH]c1=O	214 to 220 °C
O=C(Nc1cccc(CC(=O)OCc2ccccc2)c1)NC1C(=O)N(CC(=O)N2CCCC2)c2ccccc2N(c2ccccc2F)C1=O (stereo not drawn)	104 to 106 °C
NC(=O)NCc1ccc(CNC(=O)[C@@H](CCCNC(N)=N[N+](=O)[O-])NC(=O)OCc2ccc3ccccc3c2)cc1	155 to 160 °C
C1=C(c2c[nH]c3ccccc23)CCN(CCCOc2cccc3[nH]ccc23)C1	192 to 194 °C
